# Reference: ChEMBL document CHEMBL4825686, “HTS-based discovery and optimization of novel positive allosteric modulators of the α7 nicotinic acetylcholine receptor” (Eur J Med Chem, 2021)
# Active and inactive are the calls of the source. No cut-off for these calls is given here.
# Columns and labels:
# [1] = Mutagenicity in Salmonella typhimurium TA100 in presence of rat liver S9 fraction by AMES test; type: toxicity, subcellular; conditions: salmonella enterica subsp. enterica serovar typhimurium
# [2] = Ratio of drug level in Wistar rat brain to plasma at 10 mg/kg, ip measured after 35 mins by HPLC-MS/MS analysis; type: ADME, organism-based; conditions: read-out: BPR
# [3] = Ratio of drug level in Wistar rat brain to plasma at 3 mg/kg, ip measured after 35 mins by HPLC-MS/MS analysis; type: ADME, organism-based; conditions: read-out: BPR
# [4] = Ratio of drug level in Wistar rat brain to plasma at 1 mg/kg, ip measured after 35 mins by HPLC-MS/MS analysis; type: ADME, organism-based; conditions: read-out: BPR
# [5] = Apparent permeability across apical to basolateral side in vinblastine-treated human Caco-2 cells expressing P-glycoprotein at 1 uM incubated for 120 mins by HPLC analysis; type: ADME
# Mus musculus [6] = experiment: Cognitive enhancing effect in scopolamine-induced amnesia NMRI mouse model assessed as increase in recognition index at 1 to 10 mg/kg, ip administered 30 mins prior to scopolamine injection by Y-maze test; type: functional, organism-based; conditions: dose 1-10 mg/kg
# [7] = target: 5-hydroxytryptamine receptor 2B (Homo sapiens) (UniProt P41595); experiment: Binding affinity to human recombinant 5-HT2B receptor assessed as displacement of radioligand at 10 uM by displacement binding assay
# Rattus norvegicus [8] = experiment: Cognitive enhancing effect in Hannover Wistar rat assessed as increase in novel object recognition index at 1 to 10 mg/kg, po administered 30 mins prior to recognition trail by novel object recognition test; type: functional, organism-based; conditions: dose 1-10 mg/kg
# [9] = Drug uptake in NMRI mouse brain at 1 mg/kg, ip measured after 1 hr by HPLC-MS/MS analysis; type: ADME, organism-based; conditions: read-out: Ct
# [10] = Drug uptake in NMRI mouse brain at 3 mg/kg, ip measured after 1 hr by HPLC-MS/MS analysis; type: ADME, organism-based; conditions: read-out: Ct
# [11] = Drug uptake in NMRI mouse brain at 10 mg/kg, ip measured after 1 hr by HPLC-MS/MS analysis; type: ADME, organism-based; conditions: read-out: Ct
# [12] = Plasma concentration in NMRI mouse at 1 mg/kg, ip measured after 1 hr by HPLC-MS/MS analysis; type: ADME, organism-based
# [13] = Plasma concentration in NMRI mouse at 3 mg/kg, ip measured after 1 hr by HPLC-MS/MS analysis; type: ADME, organism-based
# [14] = Plasma concentration in NMRI mouse at 10 mg/kg, ip measured after 1 hr by HPLC-MS/MS analysis; type: ADME, organism-based
# [15] = Ratio of drug level in NMRI mouse brain to plasma at 1 mg/kg, ip measured after 1 hr by HPLC-MS/MS analysis; type: ADME, organism-based; conditions: read-out: BPR
# [16] = Ratio of drug level in NMRI mouse brain to plasma at 3 mg/kg, ip measured after 1 hr by HPLC-MS/MS analysis; type: ADME, organism-based; conditions: read-out: BPR
# [17] = Ratio of drug level in NMRI mouse brain to plasma at 10 mg/kg, ip measured after 1 hr by HPLC-MS/MS analysis; type: ADME, organism-based; conditions: read-out: BPR
# [18] = Drug uptake in Wistar rat brain at 1 mg/kg, ip measured after 35 mins by HPLC-MS/MS analysis; type: ADME, organism-based; conditions: read-out: Ct
# [19] = Drug uptake in Wistar rat brain at 3 mg/kg, ip measured after 35 mins by HPLC-MS/MS analysis; type: ADME, organism-based; conditions: read-out: Ct
# [20] = Drug uptake in Wistar rat brain at 10 mg/kg, ip measured after 35 mins by HPLC-MS/MS analysis; type: ADME, organism-based; conditions: read-out: Ct
# [21] = Plasma concentration in Wistar rat at 1 mg/kg, ip measured after 35 mins by HPLC-MS/MS analysis; type: ADME, organism-based
# [22] = Plasma concentration in Wistar rat at 3 mg/kg, ip measured after 35 mins by HPLC-MS/MS analysis; type: ADME, organism-based
# [23] = Plasma concentration in Wistar rat at 10 mg/kg, ip measured after 35 mins by HPLC-MS/MS analysis; type: ADME, organism-based
# [24] = Mutagenicity in Salmonella typhimurium TA1535 in presence of rat liver S9 fraction by AMES test; type: toxicity, subcellular; conditions: salmonella enterica subsp. enterica serovar typhimurium
# [25] = Mutagenicity in Salmonella typhimurium TA98 in presence of rat liver S9 fraction by AMES test; type: toxicity, subcellular; conditions: salmonella enterica subsp. enterica serovar typhimurium
# [26] = Mutagenicity in Salmonella typhimurium TA98 in absence of rat liver S9 fraction by AMES test; type: toxicity; conditions: salmonella enterica subsp. enterica serovar typhimurium
# [27] = Mutagenicity in Salmonella typhimurium TA100 in absence of rat liver S9 fraction by AMES test; type: toxicity; conditions: salmonella enterica subsp. enterica serovar typhimurium
# [28] = Mutagenicity in Salmonella typhimurium TA1537 in presence of rat liver S9 fraction by AMES test; type: toxicity, subcellular; conditions: salmonella enterica subsp. enterica serovar typhimurium
# [29] = Mutagenicity in Salmonella typhimurium TA1537 in absence of rat liver S9 fraction by AMES test; type: toxicity; conditions: salmonella enterica subsp. enterica serovar typhimurium
# [30] = Mutagenicity in Escherichia coli WP2 uvrA in presence of rat liver S9 fraction by AMES test; type: toxicity, subcellular
# [31] = Mutagenicity in Escherichia coli WP2 uvrA in absence of rat liver S9 fraction by AMES test; type: toxicity
# Rattus norvegicus [32] = experiment: Reversal of scopolamine induced amnesia in Lister Hooded rat at 0.3 to 10 mg/kg, po administered 25 mins prior to scopolamine injection and measured after 20 mins by rodent touch screen visual discrimination test; type: functional, organism-based; conditions: dose 0.3-10 mg/kg
# [33] = Mutagenicity in Salmonella typhimurium TA1535 in absence of rat liver S9 fraction by AMES test; type: toxicity; conditions: salmonella enterica subsp. enterica serovar typhimurium
# [34] = target: Sodium-dependent noradrenaline transporter (Homo sapiens) (UniProt P23975); experiment: Displacement of [125I]RTI55 from human recombinant NET expressed in MDCK cells at 10 uM incubated for 3 hrs by radiometric scintillation counting analysis; type: cell-based
# [35] = target: Sodium-dependent dopamine transporter (Homo sapiens) (UniProt Q01959); experiment: Displacement of [125I]RTI55 from human recombinant DAT expressed in CHO-S cells at 10 uM incubated for 3 hrs by radiometric scintillation counting analysis; type: cell-based
# Mus musculus [36] = experiment: Cognitive enhancing effect in ip dosed scopolamine-induced amnesia NMRI mouse model assessed as increase in recognition index administered 30 mins prior to scopolamine injection by Y-maze test; type: functional; conditions: 0.5 h, read-out: MED
# Rattus norvegicus [37] = experiment: Cognitive enhancing effect in po dosed Hannover Wistar rat assessed as increase in novel object recognition index administered 30 mins prior to recognition trail by novel object recognition test; type: functional; conditions: 0.5 h, read-out: MED
# Sequence of Sodium-dependent dopamine transporter (Homo sapiens) (Q01959 whole entry): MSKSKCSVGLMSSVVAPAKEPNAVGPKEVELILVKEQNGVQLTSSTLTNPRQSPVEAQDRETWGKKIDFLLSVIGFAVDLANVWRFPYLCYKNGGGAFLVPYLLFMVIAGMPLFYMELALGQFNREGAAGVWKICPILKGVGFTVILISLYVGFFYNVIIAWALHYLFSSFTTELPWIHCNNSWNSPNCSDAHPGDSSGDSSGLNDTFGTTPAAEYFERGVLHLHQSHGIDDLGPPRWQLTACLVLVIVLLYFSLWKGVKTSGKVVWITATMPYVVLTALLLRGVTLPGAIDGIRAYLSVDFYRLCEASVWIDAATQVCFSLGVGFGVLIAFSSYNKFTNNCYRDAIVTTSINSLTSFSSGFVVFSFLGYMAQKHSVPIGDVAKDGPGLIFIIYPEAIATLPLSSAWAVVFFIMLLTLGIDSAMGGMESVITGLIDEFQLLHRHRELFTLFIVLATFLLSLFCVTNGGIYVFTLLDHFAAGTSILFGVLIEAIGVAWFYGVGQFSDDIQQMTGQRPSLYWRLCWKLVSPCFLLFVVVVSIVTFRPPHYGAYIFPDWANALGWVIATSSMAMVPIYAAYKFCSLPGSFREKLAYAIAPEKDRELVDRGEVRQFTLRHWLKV
# Sequence of 5-hydroxytryptamine receptor 2B (Homo sapiens) (P41595 whole entry): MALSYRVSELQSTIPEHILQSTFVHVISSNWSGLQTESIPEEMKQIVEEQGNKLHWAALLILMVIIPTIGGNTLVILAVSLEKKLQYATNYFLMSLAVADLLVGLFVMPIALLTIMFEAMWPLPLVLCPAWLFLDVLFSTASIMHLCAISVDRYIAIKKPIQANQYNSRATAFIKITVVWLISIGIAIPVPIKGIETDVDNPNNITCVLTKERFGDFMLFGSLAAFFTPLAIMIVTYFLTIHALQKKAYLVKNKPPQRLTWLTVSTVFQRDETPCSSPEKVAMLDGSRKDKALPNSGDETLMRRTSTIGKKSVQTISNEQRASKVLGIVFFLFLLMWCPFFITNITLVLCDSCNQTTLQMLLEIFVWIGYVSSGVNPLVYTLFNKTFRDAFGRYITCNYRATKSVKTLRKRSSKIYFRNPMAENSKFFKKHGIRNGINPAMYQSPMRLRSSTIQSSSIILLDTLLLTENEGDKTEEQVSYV
# Sequence of Sodium-dependent noradrenaline transporter (Homo sapiens) (P23975 whole entry): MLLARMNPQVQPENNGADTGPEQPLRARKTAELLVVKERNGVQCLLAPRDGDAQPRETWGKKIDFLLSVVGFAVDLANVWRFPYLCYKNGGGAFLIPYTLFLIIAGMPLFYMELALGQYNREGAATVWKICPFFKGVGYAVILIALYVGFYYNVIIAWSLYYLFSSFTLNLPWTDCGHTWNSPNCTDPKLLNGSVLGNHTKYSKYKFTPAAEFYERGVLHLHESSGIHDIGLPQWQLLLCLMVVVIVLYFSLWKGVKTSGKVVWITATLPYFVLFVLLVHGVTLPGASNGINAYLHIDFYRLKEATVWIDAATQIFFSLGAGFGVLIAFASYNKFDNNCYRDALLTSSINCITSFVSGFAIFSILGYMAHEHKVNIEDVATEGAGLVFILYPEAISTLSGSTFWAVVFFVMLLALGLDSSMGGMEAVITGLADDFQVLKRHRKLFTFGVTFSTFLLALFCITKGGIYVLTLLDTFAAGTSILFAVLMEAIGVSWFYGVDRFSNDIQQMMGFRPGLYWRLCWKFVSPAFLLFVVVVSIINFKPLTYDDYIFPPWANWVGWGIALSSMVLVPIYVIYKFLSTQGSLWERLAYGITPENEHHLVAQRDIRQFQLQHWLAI
compound,measurement,setting,value
O=C(NCc1ccc2[nH]ccc2c1)N1CC(COc2ccc(C(F)(F)F)cc2)C1,Activity,[1],Non-Toxic
same,Kp at 35 min,[2],1.38
same,Kp at 35 min,[3],1.4
same,Kp at 35 min,[4],1.43
same,"Papp A→B at 2 h, 1 µM",[5],55 ×10⁻⁶ cm/s
same,Activity,Mus musculus [6],Active
same,inhibition,[7],> 50%
same,Activity,Rattus norvegicus [8],Active
same,concentration at 1 h,[9],673 nM
same,concentration at 1 h,[10],2210 nM
same,concentration at 1 h,[11],9920 nM
same,concentration at 1 h,[12],647 nM
same,concentration at 1 h,[13],2270 nM
same,concentration at 1 h,[14],9470 nM
same,Kp at 1 h,[15],1.04
same,Kp at 1 h,[16],0.99
same,Kp at 1 h,[17],1.06
same,concentration at 35 min,[18],1010 nM
same,concentration at 35 min,[19],3110 nM
same,concentration at 35 min,[20],11100 nM
same,concentration at 35 min,[21],746 nM
same,concentration at 35 min,[22],2220 nM
same,concentration at 35 min,[23],8020 nM
same,Activity,[24],Non-Toxic
same,Activity,[25],Non-Toxic
same,Activity,[26],Non-Toxic
same,Activity,[27],Non-Toxic
same,Activity,[28],Non-Toxic
same,Activity,[29],Non-Toxic
same,Activity,[30],Non-Toxic
same,Activity,[31],Non-Toxic
same,Activity,Rattus norvegicus [32],Active
same,Activity,[33],Non-Toxic
same,inhibition,[34],> 50%
same,inhibition,[35],> 50%
same,minimal effective dose,Mus musculus [36],1 mg/kg
same,minimal effective dose,Rattus norvegicus [37],1 mg/kg
